Measured values taken from publication PMC12473165, “Theranostic Potential of a New ^64Cu-Labeled NOTA-R954 Peptide Conjugate for Kinin B1R Expressing Prostate Cancer” (Pharmaceutics, 2025).
Square brackets hold non-standard residues; d marks the D form. Peptide text beside a SMILES is read from it. Oic = O=C(O)[C@@H]1C[C@@H]2CCCC[C@@H]2N1; d2Nal = N[C@H](Cc1ccc2ccccc2c1)C(=O)O; αMeF = C[C@](N)(Cc1ccccc1)C(=O)O; Orn = NCCC[C@H](N)C(=O)O

Key:
hB2R [1] = biological target: T1, hB2R (Homo sapiens, UniProt P30411); experiment: Human umbilical vein (HUV) contractility bioassay, B2R; parameters: native (HUV) human kinin B1R and B2R; from tissue; host or cells: isolated human umbilical vein (HUV); settings: isolated human umbilical vein contraction; means of 2 independent experiments
T1 sequence (P30411 1-391): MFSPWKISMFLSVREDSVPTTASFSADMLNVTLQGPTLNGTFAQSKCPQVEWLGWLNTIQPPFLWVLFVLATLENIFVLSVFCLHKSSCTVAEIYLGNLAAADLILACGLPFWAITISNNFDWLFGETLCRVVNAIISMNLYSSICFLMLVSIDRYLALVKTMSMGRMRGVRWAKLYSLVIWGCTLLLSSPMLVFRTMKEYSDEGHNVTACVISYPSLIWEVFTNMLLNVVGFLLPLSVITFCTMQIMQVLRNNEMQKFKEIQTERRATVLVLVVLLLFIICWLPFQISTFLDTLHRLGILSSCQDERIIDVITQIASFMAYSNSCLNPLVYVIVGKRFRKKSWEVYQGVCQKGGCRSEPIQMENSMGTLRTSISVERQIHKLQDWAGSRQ

native hB1R = biological target: T2, native hB1R (Homo sapiens, UniProt P46663); experiment: Human umbilical vein (HUV) contractility bioassay, B1R; settings: isolated human umbilical vein contraction, DBK agonist at submaximal concentration; means of 2 independent experiments
T2 construct: from tissue; host or cells: isolated human umbilical vein (HUV)
T2 sequence (P46663 1-353): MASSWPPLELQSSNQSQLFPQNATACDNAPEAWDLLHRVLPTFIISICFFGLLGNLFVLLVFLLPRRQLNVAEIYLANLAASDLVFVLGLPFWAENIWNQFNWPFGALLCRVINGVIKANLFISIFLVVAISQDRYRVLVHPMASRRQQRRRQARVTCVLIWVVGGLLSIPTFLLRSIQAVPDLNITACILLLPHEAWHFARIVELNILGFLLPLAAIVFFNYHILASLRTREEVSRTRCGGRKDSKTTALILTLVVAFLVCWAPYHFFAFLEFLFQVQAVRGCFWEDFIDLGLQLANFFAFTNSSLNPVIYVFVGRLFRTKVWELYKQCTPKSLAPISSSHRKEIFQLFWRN
Experimental: The potency (apparent affinity) of non-radioactive NOTA-βAla-R954 peptide conjugates at native inducible B1R was assessed using human tissue bioassays with isolated umbilical veins, as previously described. Collection of umbilical cords for these bioassays was approved by the CHUS Human Research Ethics Committee (protocol #97-14; 21 March 1997), and maternal consent was obtained in all cases. Antagonist affinity was expressed in terms of IC50, which represents the molar concentration of an antagonist that reduces the response to a submaximal concentration of the DBK agonist by 50%.

hB1R [2] = biological target: T3, hB1R (Homo sapiens, UniProt P46663); experiment: Radioligand competition binding on HEK293 cells stably expressing hB1R; parameters: expressed in transfected cells; host or cells: QBI-HEK293A (lentiviral transduction, puromycin selection); settings: HEK293 cells stably expressing hB1R; competition with 4 nM [3H]Lys[Leu8]desArg9BK, 1-2 h, serum-free DMEM; means of 2 independent experiments in triplicates; read-out: B1R HEK293 IC50
T3 sequence (P46663 1-353): T2 sequence (P46663 1-353)

hB1R [3] = biological target: T3, hB1R; experiment: NFAT-eGFP reporter assay in CHO-hB1R-NFAT-eGFP cells; format: cell-based; parameters: expressed in transfected cells; host or cells: CHO (hB1R-expressing line, then transduced with NFAT-eGFP reporter)
Text: The pLenti-6V5-NFAT-eGFP vector was generated from the pSIRV-NFAT-eGFP vector (a gift from Peter Steinberger, Addgene plasmid #118031). Briefly, NFAT-eGFP gene was PCR amplified using the following primers: 5′-[…]-3′ and 5′-[…]-3′). The amplified gene was then ligated into the ClaI and AgeI restriction sites of the pLenti-6V5 vector. Lentiviruses were produced using the pLenti-6V5-NFAT-eGFP vector in HEK293T cells and used to transduce a hB1R-expressing CHO cell line, followed by selection with 10 µg/mL blasticidin. […] Clones were grown in 4000 nanowells/well in 24-well plates and re-plated into 96-well plates after initial expansion via the ALS CellCelector™ (Sartorius Corporation, Bohemia, NY, USA). After clonal expansion, individual cell lines were evaluated based on their ratio of stimulated fluorescence to basal expression to determine maximum sensitivity.
Fluorescence assays performed on CHO-hB1R-NFAT-eGFP cells. Target cells were plated at 10,000 cells/well in a 96-well microplate (opaque black wells with clear flat bottom, Thermo Scientific, Rockford, IL, USA) using RPMI 1640 medium with 10% fetal bovine serum (FBS). After 24 h, the medium was replaced by RPMI without FBS and phenol red. […] Fluorescence was measured using a TECAN M1000 (Tecan Group Ltd., Männedorf, Switzerland) multimode microplate reader with excitation at 488 nm and emission at 507 nm. Each data point represents a ratio of two values, divided by the average fluorescence of six control wells. […] Antagonist affinity (Kb) was estimated from functional inhibition curves using the Gaddum (Schild) equation assuming competitive antagonism at human B1R: Kb = [B]/(dose-ratio–1), where [B] is the antagonist concentration, and the dose ratio is EC50 + Compound/EC50.

hB2R [4] = biological target: T1, hB2R; experiment: Radioligand competition binding on HEK293 cells stably expressing hB2R; settings: competition with 1 nM [3H]BK, 1-2 h, serum-free DMEM, means of 2 independent experiments in triplicates, read-out: B2R HEK293 IC50
Experimental: Radiolabeled ligand competition binding assays were performed on HEK293 cells stably expressing hB1R or hB2R, as previously described. Cells were cultured in 24-well plates and incubated with 4 nM [^3H]Lys[Leu^8]desArg^9BK (for B1R studies) (ART1583; 90–120 Ci/mmol; American Radiolabeled Chemicals) or 1 nM [^3H]BK (for B2R studies) (NET706; 109 Ci/mmol; Perkin-Elmer, Woodbridge, ON, Canada) in serum-free DMEM for 1–2 h in the absence or presence of increasing concentrations of competitors (10^−11–10^−5M). Radioactivity in the samples was measured using a β-scintillation counter (Tri-Carb 2800; Perkin-Elmer). Binding affinities were expressed as IC50 values, calculated using GraphPad Prism version 8.2.1 software (GraphPad Software, San Diego, CA, USA).

- IC50 (hB2R [1]): > 10000 nM
- IC50 (native hB1R): 3 nM
- IC50 (hB1R [2]): 2 nM
- IC50 (hB1R [3]; hB1R-stably expressing CHO-NFAT cells, antagonist potency, means of two independent experiments, read-out: CHO-NFAT IC50 (Table S1)): 1.4 nM
- Kb (hB1R [3]; read-out: B1R-NFAT CHO Kb): 1.4 nM
- IC50 (hB2R [4]): > 10000 nM
Compound: CC[C@H](C)[C@H](NC(=O)[C@@H](Cc1ccc2ccccc2c1)NC(=O)[C@H](CO)NC(=O)[C@](C)(Cc1ccccc1)NC(=O)CNC(=O)[C@@H]1CCCN1C(=O)[C@@H]1C[C@@H]2CCCC[C@@H]2N1C(=O)[C@H](CCCNC(=N)N)NC(=O)[C@H](CCCN)NC(C)=O)C(=O)O [R954, AcOrn[Oic^2,^(αMe)Phe5,DβNal^7,Ile^8]desArg^9-bradykinin] (Ac-[Orn]R[Oic]PG[αMeF]S[d2Nal]I-OH)
